Assay results reported in patent US8288393B2, “Nitrogen-containing heterocyclic compound and pest control agent” (Nippon Soda Co., Ltd., priority 2007, dated 2012).

Tests used:
Pseudaletia separata = assay: Efficacy against Pseudaletia separata (corn leaf dip); type: in vivo; conditions: 125 ppm wettable powder, corn leaves immersed, 2nd instar larvae, 25° C., 5 days later
Experimental: (§1) The wettable powder indicated in the aforementioned Preparation Example 1 was diluted with water to a compound concentration of 125 ppm in accordance with the formula thereof. After immersing corn leaves in the chemical liquid for 30 seconds and allowing to air dry, the corn leaves were placed in a Petri dish lined with filter paper and inoculated with five 2nd instar Pseudaletia separata larvae. A glass cover was placed over the Petri dish, the dish was placed in a constant temperature chamber at a temperature of 25° C. and humidity of 65%, and viability was investigated 5 days later followed by determination of insect mortality rate. The test was repeated twice.

Spodoptera litura = assay: Efficacy against Spodoptera litura (cabbage leaf dip); type: in vivo; conditions: 125 ppm emulsion, cabbage leaves immersed, 2nd instar larvae, 25° C., 5 days later
Experimental: as §1, with “The emulsion” for “The wettable powder”, “Example 2” for “Example 1”, “immersing cabbage” for “immersing corn”, “the cabbage” for “the corn”, “instar Spodoptera litura” for “instar Pseudaletia separata”

[1] = tested on: Tetranychus urticae resistant to organic phosphorous agents; assay: Efficacy against Tetranychus urticae (spray on kidney bean plants); type: in vivo; conditions: 125 ppm wettable powder sprayed on kidney bean plants, female adults, 25° C., 3 days later
From the text: After inoculating the first true leaves of kidney bean plants planted in a no. 3 pot for which 7 to 10 days had elapsed since germination with female adult Tetranychus urticae resistant to organic phosphorous agents, a chemical liquid diluted with water to a compound concentration of 125 ppm was sprayed onto the kidney bean plants in accordance with the formula of the wettable powder indicated in the aforementioned Preparation Example 1. The kidney bean plants were placed in a constant temperature chamber at a temperature of 25° C. and humidity of 65% and insect mortality rate was investigated 3 days later. The test was repeated twice.

Aphis gossypii = assay: Efficacy against Aphis gossypii (spray on infested cucumber plants); type: in vivo; conditions: 125 ppm emulsion sprayed on cucumber plants infested with nymphs, 25° C., 5 days later
From the text: Cucumber plants planted in a no. 3 pot for which 10 days had elapsed since germination were inoculated with adult Aphis gossypii. The adult insects were removed after 1 day, and a chemical liquid diluted with water to a compound concentration of 125 ppm was sprayed onto the cucumber plants infested with nymphs laid by the adults in accordance with the emulsion formula indicated in the aforementioned Preparation Example 2. The cucumber plants were placed in a constant temperature chamber at a temperature of 25° C. and humidity of 65% and insect viability was investigated 5 days later followed by determination of insect mortality rate. The test was repeated twice.

Culex pipiens molestus = assay: Efficacy against Culex pipiens molestus (larvae in water); conditions: in vivo
Experimental: 0.225 ml of distilled water containing 10 Culex pipiens molestus larvae 1 day after hatching and aquarium fish food (TetraMin, Tetra Japan) were placed in a 0.3 ml polystyrene test container.
The compounds were prepared as 1% solutions using DMSO (containing 0.5% Tween 20), and further diluted to 0.01% with distilled water. 0.025 ml of the diluted chemical liquid were added to the test container containing the Culex pipiens molestus larvae followed by stirring (final compound concentration: 0.001%).
Insect mortality rates were invested 2 days after allowing to stand at 25° C. The test was repeated twice.

Compound: Cc1cc(Cl)ccc1N=CN(C)C [chlordimeform]
- insect mortality rate (Pseudaletia separata): 40%
- insect mortality rate (Spodoptera litura): 40%
- insect mortality rate [1]: 40%

Compound: Cc1nc(N(C)C)nc(OC(=O)N(C)C)c1C [pirimicarb]
- insect mortality rate (Aphis gossypii): 9%

Compound: N-{[5-(3,5-dichlorophenyl)-5-trifluoromethyl-4,5-dihydroisoxazol-3-yl]indan-1-yl}-propionic acid amide [1-6]
- insect mortality rate (Culex pipiens molestus): ≥ 90%
